Results published in ChEMBL document CHEMBL4419173, “Small-molecule inhibitors targeting g-protein-coupled rho guanine nucleotide exchange factors” (2014).
Activity calls are given as the source filed them. No cut-off for these calls is given here.

Assays:
MCF7 [1] = experiment: Inhibition of mammospheres formation in human MCF7 cells incubated for 10 days; assay type: functional, cell-based
MCF7 [2] = experiment: Inhibition of RhoGEF in human MCF7 cells derived mammospheres assessed as inhibition of RhoA-mediated phospho-MLC formation at 10 uM incubated for 24 hrs by densitometry; assay type: cell-based
MCF7 [3] = experiment: Inhibition of RhoGEF in human MCF7 cells derived mammospheres assessed as inhibition of 10% calf serum-induced RhoA-GTP formation at 10 uM incubated for 24 hrs by densitometry relative to control; assay type: cell-based
MCF7 [4] = experiment: Inhibition of RhoGEF in human MCF7 cells derived mammospheres assessed as inhibition of 10% calf serum-induced RhoA-GTP formation by measuring relative RhoA-GTP level at 5 uM in presence of 5 uM Rhosin/G04 incubated for 24 hrs by densitometry (reference value: 1); assay type: cell-based
MCF7 [5] = experiment: Inhibition of RhoGEF in human MCF7 cells derived mammospheres assessed as inhibition of 10% calf serum-induced RhoA-GTP formation by measuring relative RhoA-GTP level at 10 uM incubated for 24 hrs by densitometry (reference value: 1); assay type: cell-based
MCF7 [6] = experiment: Inhibition of RhoGEF in human MCF7 cells derived mammospheres assessed as inhibition of 10% calf serum-induced RhoA-GTP formation by measuring relative RhoA-GTP level at 5 uM incubated for 24 hrs by densitometry (reference value: 1); assay type: cell-based
MCF7 [7] = experiment: Inhibition of cell invasion of human MCF7 cells at 2.5 to 25 uM in presence of 2.5 to 25 uM Rhosin/G04 by Matrigel-coated transwell based assay; assay type: functional
MCF7 [8] = experiment: Inhibition of cell migration of human MCF7 cells at 2.5 to 30 uM in presence of 2.5 to 30 uM Rhosin/G04; assay type: functional, cell-based
MCF7 [9] = experiment: Growth inhibition of human MCF7 cells at 2.5 to 15 uM in presence of 2.5 to 15 uM Rhosin/G04; assay type: functional, cell-based
Mus musculus [10] = species: Mus musculus; experiment: Inhibition of RhoGEF in mouse NIH/3T3 cells assessed as inhibition of 10% calf serum-induced Rac1-GTP formation by measuring relative Rac1-GTP level at 50 uM in presence of 50 uM Rhosin/G04 incubated for 24 hrs by densitometry (reference value: 1); assay type: cell-based
Mus musculus [11] = species: Mus musculus; experiment: Inhibition of RhoGEF in mouse NIH/3T3 cells assessed as inhibition of 10% calf serum-induced RhoA-GTP formation by measuring relative RhoA-GTP level at 5 uM in presence of 5 uM Rhosin/G04 incubated for 24 hrs by densitometry (reference value: 1); assay type: cell-based
Mus musculus [12] = species: Mus musculus; experiment: Inhibition of RhoGEF in mouse NIH/3T3 cells assessed as inhibition of 10% calf serum-induced RhoA-GTP formation by measuring relative RhoA-GTP level at 30 uM incubated for 24 hrs by densitometry (reference value: 1); assay type: cell-based
[13] = target: RhoGEF 1/Transforming protein RhoA (Homo sapiens) (UniProt P61586+Q92888); experiment: Binding affinity to human LARG (765 to 1138 residues) DH-PH module expressed in mouse NIH/3T3 cells assessed as reduction in LARG binding to human full length RhoA (1 to 193 residues) by measuring relative LARG binding level at 2.5 uM in presence of 2.5 uM Rhosin/G04 pull-down assay (reference value: 1 No unit); assay type: cell-based
Mus musculus [14] = species: Mus musculus; experiment: Inhibition of RhoGEF in mouse NIH/3T3 cells assessed as reduction in 10% calf serum-induced rhoA-mediated actin stress fiber formation at 2.5 uM in presence of 2.5 uM Rhosin/G04 by rhodamine-phalloidin staining based assay; assay type: cell-based
Mus musculus [15] = species: Mus musculus; experiment: Inhibition of RhoGEF in mouse NIH/3T3 cells assessed as inhibition of 10% calf serum-induced RhoA-GTP formation by measuring reduction in RhoA-GTP level at 2.5 uM in presence of 2.5 uM Rhosin/G04 incubated for 24 hrs by densitometry relative to control; assay type: cell-based
Mus musculus [16] = species: Mus musculus; experiment: Inhibition of RhoGEF in mouse NIH/3T3 cells assessed as inhibition of 10% calf serum-induced Cdc42-GTP formation by measuring Cdc42-GTP level at 10 uM incubated for 24 hrs by densitometry relative to control (reference value: 3.25); assay type: cell-based
Mus musculus [17] = species: Mus musculus; experiment: Inhibition of RhoGEF in mouse NIH/3T3 cells assessed as inhibition of 10% calf serum-induced Rac1-GTP formation by measuring Rac1-GTP level at 10 uM incubated for 24 hrs by densitometry relative to control (reference value: 2.86); assay type: cell-based
Mus musculus [18] = species: Mus musculus; experiment: Inhibition of RhoGEF in mouse NIH/3T3 cells assessed as inhibition of 10% calf serum-induced RhoA-GTP formation by measuring RhoA-GTP level at 10 uM incubated for 24 hrs by densitometry relative to control (reference value: 2.15); assay type: cell-based
NIH3T3 = experiment: Toxicity in mouse NIH/3T3 cells assessed as induction of apoptosis at 10 to 50 uM incubated for 24 hrs by Annexin-V/7-AAD staining based FACS analysis; assay type: cell-based; settings: nih3t3, 24 h
Mus musculus [19] = species: Mus musculus; experiment: Inhibition of RhoGEF-mediated RhoA signaling in mouse NIH/3T3 cells assessed as inhibition of serum -induced phospho-MLC formation at 10 to 30 uM incubated for 24 hrs by densitometry; assay type: cell-based
[20] = test system: Rho-associated protein kinase 2 (Homo sapiens), O75116 [UNDEFINED MUTATION]; experiment: Inhibition of constitutively active ROCK2 mutant (unknown origin) expressed in mouse NIH/3T3 cells assessed as reduction in 10% calf serum-induced actin stress fiber formation at 30 uM by rhodamine-phalloidin staining based assay; assay type: cell-based
Mus musculus [21] = species: Mus musculus; experiment: Inhibition of RhoGEF-mediated Cdc42 signaling in mouse NIH/3T3 cells assessed as reduction in Bradykinin-stimulated Cdc42-mediated filopodia formation at 10 to 30 uM; assay type: cell-based
[22] = target: Intersectin-1 (Homo sapiens) (UniProt Q15811); experiment: Inhibition of GST-tagged human intersectin-1 (1227 to 1571 residues) RhoGEF-catalyzed guanine nucleotide-exchange reaction of human full length Cdc42 (1 to 191 residues) by measuring inhibition of the GDP dissociation from Cdc42 at 0.76 to 250000 nM by Alexa 647 fluorescence dye based GDP/GTP exchange assay
[23] = target: Rho guanine nucleotide exchange factor 12 (Homo sapiens, UniProt Q9NZN5); experiment: Inhibition of human LARG (765 to 1138 residues) RhoGEF-catalyzed guanine nucleotide-exchange reaction of human full length RhoA (1 to 193 residues) by measuring inhibition of the GDP dissociation from RhoA by Alexa 647 fluorescence dye based GDP/GTP exchange assay
[24] = target: Rho GEF 11/Transforming protein RhoA (Homo sapiens) (UniProt P61586+O15085); experiment: Inhibition of FLAG-tagged human PDZ RhoGEF DH-PH module expressed in mouse NIH/3T3 cells assessed as reduction in human full length RhoA (1 to 193 residues) interaction with PDZ RhoGEF at 30 to 50 uM incubated for 1 hr by Western blot analysis based GST-RhoA pull-down assay; assay type: cell-based
[25] = target: Triple functional domain protein (Homo sapiens, UniProt O75962); experiment: Binding affinity to GST-tagged human TrioN RhoGEF (1284 to 1711 residues) by microscale thermophoresis analysis
[26] = target: Intersectin-1 (Homo sapiens) (UniProt Q15811); experiment: Binding affinity to GST-tagged human intersectin-1 RhoGEF at 1 to 100000 nM by microscale thermophoresis analysis

Sequence of Intersectin-1 (Homo sapiens) (Q15811 whole entry, the tested form may be a part): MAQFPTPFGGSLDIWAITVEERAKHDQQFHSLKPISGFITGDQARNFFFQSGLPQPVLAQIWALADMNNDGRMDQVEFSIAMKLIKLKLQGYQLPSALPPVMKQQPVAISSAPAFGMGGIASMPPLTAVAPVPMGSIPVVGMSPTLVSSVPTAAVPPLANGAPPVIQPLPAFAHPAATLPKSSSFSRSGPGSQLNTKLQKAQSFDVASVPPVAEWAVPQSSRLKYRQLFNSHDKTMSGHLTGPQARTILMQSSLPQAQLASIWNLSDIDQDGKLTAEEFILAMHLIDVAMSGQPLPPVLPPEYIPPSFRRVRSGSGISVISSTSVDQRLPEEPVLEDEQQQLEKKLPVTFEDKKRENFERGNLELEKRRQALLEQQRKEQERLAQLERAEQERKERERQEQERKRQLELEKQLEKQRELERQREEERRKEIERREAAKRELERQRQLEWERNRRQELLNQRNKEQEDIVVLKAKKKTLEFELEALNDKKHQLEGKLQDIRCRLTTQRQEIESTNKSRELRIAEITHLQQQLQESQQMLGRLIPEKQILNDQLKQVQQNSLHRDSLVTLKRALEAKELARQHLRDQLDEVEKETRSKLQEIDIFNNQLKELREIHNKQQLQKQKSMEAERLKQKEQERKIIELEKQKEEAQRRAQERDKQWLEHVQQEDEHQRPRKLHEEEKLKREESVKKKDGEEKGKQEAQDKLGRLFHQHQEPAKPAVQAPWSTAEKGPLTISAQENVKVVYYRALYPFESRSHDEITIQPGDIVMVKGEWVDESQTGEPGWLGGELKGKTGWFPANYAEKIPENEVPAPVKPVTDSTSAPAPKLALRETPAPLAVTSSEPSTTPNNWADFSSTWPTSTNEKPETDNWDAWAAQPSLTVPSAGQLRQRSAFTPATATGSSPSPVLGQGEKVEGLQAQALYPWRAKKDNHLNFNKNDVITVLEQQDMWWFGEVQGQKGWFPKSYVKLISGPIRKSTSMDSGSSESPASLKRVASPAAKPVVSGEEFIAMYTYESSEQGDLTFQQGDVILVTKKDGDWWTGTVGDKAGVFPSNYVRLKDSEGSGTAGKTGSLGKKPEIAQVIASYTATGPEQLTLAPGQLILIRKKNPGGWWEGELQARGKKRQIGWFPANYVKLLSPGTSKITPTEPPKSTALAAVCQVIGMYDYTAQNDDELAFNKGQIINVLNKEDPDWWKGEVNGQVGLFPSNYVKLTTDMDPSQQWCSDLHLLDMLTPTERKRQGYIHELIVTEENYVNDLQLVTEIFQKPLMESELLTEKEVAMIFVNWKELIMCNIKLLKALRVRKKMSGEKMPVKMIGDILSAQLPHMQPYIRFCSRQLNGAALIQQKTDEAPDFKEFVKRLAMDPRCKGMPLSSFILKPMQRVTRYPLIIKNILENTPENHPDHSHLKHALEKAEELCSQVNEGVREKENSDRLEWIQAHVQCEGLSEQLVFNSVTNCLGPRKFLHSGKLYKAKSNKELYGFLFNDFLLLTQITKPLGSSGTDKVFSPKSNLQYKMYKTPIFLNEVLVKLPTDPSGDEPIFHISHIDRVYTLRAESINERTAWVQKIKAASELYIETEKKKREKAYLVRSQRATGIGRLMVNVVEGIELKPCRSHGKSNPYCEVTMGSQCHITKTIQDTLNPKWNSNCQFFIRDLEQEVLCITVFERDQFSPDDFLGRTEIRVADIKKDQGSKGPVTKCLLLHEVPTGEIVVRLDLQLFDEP
Sequence of Rho-associated protein kinase 2 (Homo sapiens), O75116 [UNDEFINED MUTATION] (O75116 whole entry, looked up, change not shown): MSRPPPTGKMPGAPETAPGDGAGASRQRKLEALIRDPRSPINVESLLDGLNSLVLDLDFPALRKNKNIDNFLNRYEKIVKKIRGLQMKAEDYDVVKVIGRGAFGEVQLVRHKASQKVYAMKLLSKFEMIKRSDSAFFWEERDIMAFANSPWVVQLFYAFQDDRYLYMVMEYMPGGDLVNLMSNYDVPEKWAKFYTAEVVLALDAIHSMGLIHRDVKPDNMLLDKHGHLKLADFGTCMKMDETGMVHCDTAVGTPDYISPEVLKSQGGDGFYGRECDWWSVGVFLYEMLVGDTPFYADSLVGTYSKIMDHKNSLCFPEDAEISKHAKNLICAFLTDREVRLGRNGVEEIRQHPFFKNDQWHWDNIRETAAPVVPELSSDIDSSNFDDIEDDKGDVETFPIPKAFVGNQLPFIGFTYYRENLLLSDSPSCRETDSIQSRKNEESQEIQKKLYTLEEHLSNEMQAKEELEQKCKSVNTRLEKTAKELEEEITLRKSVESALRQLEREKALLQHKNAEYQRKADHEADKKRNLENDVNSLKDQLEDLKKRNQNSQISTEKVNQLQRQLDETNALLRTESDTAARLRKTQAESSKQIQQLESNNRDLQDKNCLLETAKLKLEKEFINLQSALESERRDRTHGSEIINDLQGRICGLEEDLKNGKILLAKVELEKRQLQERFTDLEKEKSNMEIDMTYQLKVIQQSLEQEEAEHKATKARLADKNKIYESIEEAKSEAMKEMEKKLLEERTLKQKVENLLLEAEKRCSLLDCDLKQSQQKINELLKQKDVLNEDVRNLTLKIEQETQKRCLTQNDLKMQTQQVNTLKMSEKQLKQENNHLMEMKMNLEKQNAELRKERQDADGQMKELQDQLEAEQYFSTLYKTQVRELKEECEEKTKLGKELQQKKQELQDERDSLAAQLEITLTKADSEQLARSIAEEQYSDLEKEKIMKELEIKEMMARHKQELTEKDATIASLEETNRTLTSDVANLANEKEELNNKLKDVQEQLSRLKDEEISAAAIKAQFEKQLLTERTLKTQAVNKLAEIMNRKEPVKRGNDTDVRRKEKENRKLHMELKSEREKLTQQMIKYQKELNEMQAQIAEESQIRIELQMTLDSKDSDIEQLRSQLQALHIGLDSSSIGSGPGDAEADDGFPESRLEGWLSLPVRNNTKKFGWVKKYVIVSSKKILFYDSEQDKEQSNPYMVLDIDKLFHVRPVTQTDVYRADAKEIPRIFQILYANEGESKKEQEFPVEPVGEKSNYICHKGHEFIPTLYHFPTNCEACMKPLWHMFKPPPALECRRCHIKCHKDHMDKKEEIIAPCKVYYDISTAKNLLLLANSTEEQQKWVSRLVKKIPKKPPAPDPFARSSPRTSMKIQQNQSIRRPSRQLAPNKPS
Sequence of Rho guanine nucleotide exchange factor 12 (Q9NZN5 whole entry, the tested form may be a part): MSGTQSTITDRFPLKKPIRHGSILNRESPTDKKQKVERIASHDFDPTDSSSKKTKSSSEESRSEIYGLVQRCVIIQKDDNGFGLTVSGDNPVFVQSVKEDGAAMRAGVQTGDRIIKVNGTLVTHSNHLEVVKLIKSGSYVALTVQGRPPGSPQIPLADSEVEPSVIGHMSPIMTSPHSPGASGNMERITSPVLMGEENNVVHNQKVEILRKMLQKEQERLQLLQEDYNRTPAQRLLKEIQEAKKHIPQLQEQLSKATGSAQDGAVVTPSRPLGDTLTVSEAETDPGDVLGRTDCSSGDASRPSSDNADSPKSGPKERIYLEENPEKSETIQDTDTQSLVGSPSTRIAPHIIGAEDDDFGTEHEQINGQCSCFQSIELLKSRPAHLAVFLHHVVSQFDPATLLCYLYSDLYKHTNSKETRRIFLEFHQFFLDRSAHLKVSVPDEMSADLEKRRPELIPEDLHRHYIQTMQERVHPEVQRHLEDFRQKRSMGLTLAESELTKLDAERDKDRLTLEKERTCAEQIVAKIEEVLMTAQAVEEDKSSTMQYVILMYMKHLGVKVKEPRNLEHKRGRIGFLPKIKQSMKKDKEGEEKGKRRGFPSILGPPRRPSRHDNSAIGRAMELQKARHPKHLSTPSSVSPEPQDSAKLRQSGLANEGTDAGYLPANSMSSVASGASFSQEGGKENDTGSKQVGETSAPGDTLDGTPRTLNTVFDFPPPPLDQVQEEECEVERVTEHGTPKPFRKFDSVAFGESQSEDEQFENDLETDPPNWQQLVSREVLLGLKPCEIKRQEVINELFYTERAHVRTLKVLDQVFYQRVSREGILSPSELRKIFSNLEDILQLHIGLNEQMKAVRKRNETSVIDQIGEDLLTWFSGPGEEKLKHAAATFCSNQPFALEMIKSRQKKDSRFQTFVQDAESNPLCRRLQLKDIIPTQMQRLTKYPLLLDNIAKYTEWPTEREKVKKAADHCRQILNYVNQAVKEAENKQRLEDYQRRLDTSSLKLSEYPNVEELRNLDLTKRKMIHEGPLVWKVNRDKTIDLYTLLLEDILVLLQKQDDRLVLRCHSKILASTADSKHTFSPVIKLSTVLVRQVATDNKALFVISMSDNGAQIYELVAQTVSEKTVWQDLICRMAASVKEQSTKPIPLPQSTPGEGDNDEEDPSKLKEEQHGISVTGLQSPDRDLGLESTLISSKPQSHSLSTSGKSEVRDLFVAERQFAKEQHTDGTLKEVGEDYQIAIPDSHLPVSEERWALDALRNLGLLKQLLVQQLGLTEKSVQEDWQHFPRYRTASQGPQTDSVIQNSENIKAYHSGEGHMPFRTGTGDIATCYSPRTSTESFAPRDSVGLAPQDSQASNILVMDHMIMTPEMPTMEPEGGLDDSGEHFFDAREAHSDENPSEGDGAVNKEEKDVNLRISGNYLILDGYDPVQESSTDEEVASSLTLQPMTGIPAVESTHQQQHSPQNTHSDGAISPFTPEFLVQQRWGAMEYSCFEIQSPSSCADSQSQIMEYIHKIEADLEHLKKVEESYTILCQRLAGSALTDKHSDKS

Cc1cccc(COc2cccc(/C=C3\C(=O)NN(c4ccccc4)C3=O)c2)c1
inhibition (MCF7 [1]): Dose-dependent effect
inhibition (MCF7 [2]): 50%
inhibition (MCF7 [3]): 50%
fold change (FC) (MCF7 [4]): 0.11
fold change (FC) (MCF7 [5]): 0.4
fold change (FC) (MCF7 [6]): 0.77
inhibition (MCF7 [7]): Active
inhibition (MCF7 [8]): Active
growth inhibition (GI) (MCF7 [9]): Active
fold change (FC) (Mus musculus [10]): 1.19
fold change (FC) (Mus musculus [11]): 0.46
fold change (FC) (Mus musculus [12]): 0.51
fold change (FC) [13]: 0.71
inhibition (Mus musculus [14]): Active
inhibition (Mus musculus [15]): 50%
fold change (FC) (Mus musculus [16]): 2.23
fold change (FC) (Mus musculus [17]): 1.83
fold change (FC) (Mus musculus [18]): 1.09
Activity (NIH3T3): Non-Toxic
inhibition (Mus musculus [19]): Active
inhibition [20]: inactive
inhibition (Mus musculus [21]): inactive
inhibition [22]: inactive
inhibition [23]: Dose-dependent effect
inhibition [24]: Active
Kd [25]: 774 µM
Activity [26]: inactive
